# Measurements from patent publication US12503438B2, “Compounds for the treatment of kinase-dependent disorders” (Exelixis, Inc., priority 2019, dated 2025).
# pIC50: −log10 of the molar value.
# Target: Met (Homo sapiens, UniProt P08581)
# Experiment: Met autophosphorylation ELISA in PC-3 cells
# Type: cell-based
# Parameters: endogenous in cells; host or cells: PC-3 prostate cancer cells (ATCC #CRL-1435)
# Conditions: cellular activity, HGF-stimulated, phospho-Met ELISA, read-out: c-Met IC50
# Procedure: PC-3 prostate cancer cells (ATCC #CRL-1435) were seeded at 4×10^4 cells/well onto 24-well plates (Greiner #662165), in DMEM (Thermo Fisher #11995-040) containing 10% FBS (Thermo Fisher #26140-079), 1% MEM NEAA (Thermo Fisher #11140-050), 1% GlutaMax (Thermo Fisher #35050-061), and 1% Penicillin Streptomycin (Thermo Fisher #15140-122). PC-3 cells were incubated at 37° C., 5% CO2 for 24 h and then starved for 3 h in serum-free medium. Test compounds were serially diluted to produce an 8-point dose curve in fresh serum-free medium to a final concentration of 0.3% DMSO (vehicle) and added to the cells and incubated for 1 h. Cells were then stimulated with 100 ng/mL recombinant human HGF (R&D Systems #294-HG-250) for 10 min, washed with cold PBS and immediately lysed with 130 μL of cold 1× lysis buffer [20 mM Tris, 137 mM sodium chloride, 2 mM EDTA, 10% glycerol, 1% NP-40 alternative, 1 mM activated sodium orthovanadate, 1 mM PefaBloc SC (Sigma-Aldrich #11429868001), protease/phosphatase inhibitor tablet (Thermo Fisher #A32959)]. Lysates were clarified by centrifugation and 100 μL/well added into the PathScan phospho-Met (panTyr) Sandwich ELISA (Cell Signaling Technology #7333). Assay was performed according to manufacturer's instructions. Positive control wells (100% activity) contained HGF-stimulated, DMSO-treated cell lysates. Negative control wells (0% activity) contained HGF-stimulated, reference inhibitor-treated cell lysates. IC50 values were calculated by nonlinear regression analysis using a 4-parameter logistic curve fit in ActivityBase XE (IDBS).
# Chain of Met (P08581 25-1390): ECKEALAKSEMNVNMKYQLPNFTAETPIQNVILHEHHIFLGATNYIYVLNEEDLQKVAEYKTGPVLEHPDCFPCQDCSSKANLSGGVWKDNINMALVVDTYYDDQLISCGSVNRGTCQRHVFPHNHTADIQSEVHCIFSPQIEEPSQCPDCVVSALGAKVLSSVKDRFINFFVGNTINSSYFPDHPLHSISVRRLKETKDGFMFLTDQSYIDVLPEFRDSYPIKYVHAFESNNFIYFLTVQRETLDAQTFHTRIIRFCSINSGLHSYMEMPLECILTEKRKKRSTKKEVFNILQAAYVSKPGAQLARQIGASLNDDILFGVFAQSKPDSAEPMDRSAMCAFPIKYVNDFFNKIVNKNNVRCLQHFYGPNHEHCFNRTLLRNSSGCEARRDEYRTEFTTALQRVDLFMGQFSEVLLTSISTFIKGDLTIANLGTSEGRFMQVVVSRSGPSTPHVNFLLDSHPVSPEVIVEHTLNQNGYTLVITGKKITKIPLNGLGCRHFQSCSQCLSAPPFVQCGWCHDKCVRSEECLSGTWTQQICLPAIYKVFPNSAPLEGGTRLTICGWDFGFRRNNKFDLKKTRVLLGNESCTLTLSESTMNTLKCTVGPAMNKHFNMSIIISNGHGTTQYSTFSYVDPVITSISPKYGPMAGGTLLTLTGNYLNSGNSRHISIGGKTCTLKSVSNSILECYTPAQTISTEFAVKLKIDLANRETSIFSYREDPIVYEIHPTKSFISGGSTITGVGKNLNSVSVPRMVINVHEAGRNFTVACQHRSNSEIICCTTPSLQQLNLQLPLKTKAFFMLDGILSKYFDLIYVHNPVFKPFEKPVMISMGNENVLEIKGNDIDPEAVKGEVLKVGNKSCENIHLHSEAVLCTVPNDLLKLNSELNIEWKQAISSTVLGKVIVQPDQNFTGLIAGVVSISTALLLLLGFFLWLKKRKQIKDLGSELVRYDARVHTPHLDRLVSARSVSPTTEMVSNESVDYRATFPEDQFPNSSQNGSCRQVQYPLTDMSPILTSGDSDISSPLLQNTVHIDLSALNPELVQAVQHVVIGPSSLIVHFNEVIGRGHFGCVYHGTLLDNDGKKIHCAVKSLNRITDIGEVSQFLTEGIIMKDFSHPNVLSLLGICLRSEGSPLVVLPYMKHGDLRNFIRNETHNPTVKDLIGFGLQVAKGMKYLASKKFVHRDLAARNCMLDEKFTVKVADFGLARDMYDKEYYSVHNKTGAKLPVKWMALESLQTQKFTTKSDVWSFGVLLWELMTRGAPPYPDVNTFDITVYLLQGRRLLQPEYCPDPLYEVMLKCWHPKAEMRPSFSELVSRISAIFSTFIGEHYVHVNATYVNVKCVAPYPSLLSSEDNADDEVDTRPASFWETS
row,Compound,pIC50
1,"O=C(Nc1ccc(F)cc1)C1(C(=O)Nc2ccc(Oc3ccnc4cc(-c5cncc(F)c5)ccc34)cc2)CC1 [Compound 45, 1-N′-(4-Fluorophenyl)-1-N-[4-[7-(5-fluoropyridin-3-yl)quinolin-4-yl]oxyphenyl]cyclopropane-1,1-dicarboxamide]",6.52 to 7.00
2,"Nc1ccc(-c2ccc3c(Oc4ccc(NC(=O)C5(C(=O)Nc6ccc(F)cc6)CC5)cc4)ccnc3c2)cn1 [Compound 38, 1-N-[4-[7-(6-Aminopyridin-3-yl)quinolin-4-yl]oxyphenyl]-1-N′-(4-fluorophenyl)cyclopropane-1,1-dicarboxamide]",7.00 to 8.00
3,"O=C(Nc1ccc(F)cc1)C1(C(=O)Nc2ccc(Oc3ccnc4cc(-c5cnc6[nH]ncc6c5)ccc34)cc2)CC1 [Compound 39, 1-N′-(4-Fluorophenyl)-1-N-[4-[7-(1H-pyrazolo[3,4-b]pyridin-5-yl)quinolin-4-yl]oxyphenyl]cyclopropane-1,1-dicarboxamide]",7.00 to 8.00
4,"Cn1ccc(-c2ccc3c(Oc4ccc(NC(=O)C5(C(=O)Nc6ccc(F)cc6)CC5)cc4)ccnc3c2)n1 [Compound 17, 1-N′-(4-Fluorophenyl)-1-N-[4-[7-(1-methylpyrazol-3-yl)quinolin-4-yl]oxyphenyl]cyclopropane-1,1-dicarboxamide]",7.00 to 8.00
5,"COc1cc(-c2ccc3c(Oc4ccc(NC(=O)C5(C(=O)Nc6ccc(F)cc6)CC5)cc4)ccnc3c2)ccn1 [Compound 31, 1-N′-(4-Fluorophenyl)-1-N-[4-[7-(2-methoxypyridin-4-yl)quinolin-4-yl]oxyphenyl]cyclopropane-1,1-dicarboxamide]",7.00 to 8.00
6,"O=C(Nc1ccc(F)cc1)C1(C(=O)Nc2ccc(Oc3ccnc4cc(-c5cnn(CC(F)(F)F)c5)ccc34)cc2)CC1 [Compound 16, 1-N′-(4-Fluorophenyl)-1-N-[4-[7-[1-(2,2,2-trifluoroethyl)pyrazol-4-yl]quinolin-4-yl]oxyphenyl]cyclopropane-1,1-dicarboxamide]",7.00 to 8.00
7,"CC(C)(C)n1cc(-c2ccc3c(Oc4ccc(NC(=O)C5(C(=O)Nc6ccc(F)cc6)CC5)cc4)ccnc3c2)cn1 [Compound 23, 1-N-[4-[7-(1-tert-Butylpyrazol-4-yl)quinolin-4-yl]oxyphenyl]-1-N′-(4-fluorophenyl)cyclopropane-1,1-dicarboxamide]",7.00 to 8.00
8,"O=C(Nc1ccc(F)cc1)C1(C(=O)Nc2ccc(Oc3ccnc4cc(-c5cnn6c5CCC6)ccc34)cc2)CC1 [Compound 29, 1-N-[4-[7-(5,6-Dihydro-4H-pyrrolo[1,2-b]pyrazol-3-yl)quinolin-4-yl]oxyphenyl]-1-N′-(4-fluorophenyl)cyclopropane-1,1-dicarboxamide]",7.00 to 8.00
9,"O=C(Nc1ccc(F)cc1)C1(C(=O)Nc2ccc(Oc3ccnc4cc(-c5ccncc5)ccc34)cc2)CC1 [Compound 26, 1-N′-(4-Fluorophenyl)-1-N-[4-(7-pyridin-4-ylquinolin-4-yl)oxyphenyl]cyclopropane-1,1-dicarboxamide]",≥ 8.00
10,"O=C(Nc1ccc(F)cc1)C1(C(=O)Nc2ccc(Oc3ccnc4cc(-c5cnn(C(F)F)c5)ccc34)cc2)CC1 [Compound 13, 1-N-[4-[7-[1-(Difluoromethyl)pyrazol-4-yl]quinolin-4-yl]oxyphenyl]-1-N′-(4-fluorophenyl)cyclopropane-1,1-dicarboxamide]",7.00 to 8.00
11,"O=C(Nc1ccc(F)cc1)C1(C(=O)Nc2ccc(Oc3ccnc4cc(-c5ccnc(F)c5)ccc34)cc2)CC1 [Compound 33, 1-N′-(4-Fluorophenyl)-1-N-[4-[7-(2-fluoropyridin-4-yl)quinolin-4-yl]oxyphenyl]cyclopropane-1,1-dicarboxamide]",7.00 to 8.00

# Other lines, results leading:
row,pIC50,Compound
1,6.52 to 7.00,"Cc1cncc(-c2ccc3c(Oc4ccc(NC(=O)C5(C(=O)Nc6ccc(F)cc6)CC5)cc4)ccnc3c2)c1 [Compound 46, 1-N′-(4-Fluorophenyl)-1-N-[4-[7-(5-methylpyridin-3-yl)quinolin-4-yl]oxyphenyl]cyclopropane-1,1-dicarboxamide]"
2,7.00 to 8.00,"Cn1ccnc1-c1ccc2c(Oc3ccc(NC(=O)C4(C(=O)Nc5ccc(F)cc5)CC4)cc3)ccnc2c1 [Compound 75, 1-N′-(4-Fluorophenyl)-1-N-[4-[7-(1-methylimidazol-2-yl)quinolin-4-yl]oxyphenyl]cyclopropane-1,1-dicarboxamide]"
3,7.00 to 8.00,"O=C(Nc1ccc(F)cc1)C1(C(=O)Nc2cc(F)c(Oc3ccnc4cc(-c5cnn(C(F)F)c5)ccc34)cc2F)CC1 [Compound 118, 1-N′-[4-[7-[1-(Difluoromethyl)pyrazol-4-yl]quinolin-4-yl]oxy-2,5-difluorophenyl]-1-N-(4-fluorophenyl)cyclopropane-1,1-dicarboxamide]"
4,7.00 to 8.00,"O=C(Nc1ccc(F)cc1)C1(C(=O)Nc2ccc(Oc3ccnc4cc(C5CCNC5)ccc34)cc2)CC1 (stereo not shown) [Compound 83, 1-N′-(4-Fluorophenyl)-1-N-[4-(7-pyrrolidin-3-ylquinolin-4-yl)oxyphenyl]cyclopropane-1,1-dicarboxamide]"
5,7.00 to 8.00,"Cc1cc2c(Oc3c(F)cc(NC(=O)C4(C(=O)Nc5ccc(F)cc5)CC4)c(F)c3F)ccnc2cc1-c1cnn(C)c1 [Compound 110, 1-N-(4-Fluorophenyl)-1-N′-[2,3,5-trifluoro-4-[6-methyl-7-(1-methylpyrazol-4-yl)quinolin-4-yl]oxyphenyl]cyclopropane-1,1-dicarboxamide]"
6,7.00 to 8.00,"O=C(Nc1ccc(F)cc1)C1(C(=O)Nc2ccc(Oc3ccnc4cc(-c5cc6n(n5)CCC6)ccc34)cc2)CC1 [Compound 124, 1-N-[4-[7-(5,6-Dihydro-4H-pyrrolo[1,2-b]pyrazol-2-yl)quinolin-4-yl]oxyphenyl]-1-N′-(4-fluorophenyl)cyclopropane-1,1-dicarboxamide]"
7,7.00 to 8.00,"O=C(Nc1ccc(F)cc1)C1(C(=O)Nc2ccc(Oc3ccnc4cc(-c5cccnc5O)ccc34)cc2)CC1 [Compound 52, 1-N′-(4-Fluorophenyl)-1-N-[4-[7-(2-hydroxypyridin-3-yl)quinolin-4-yl]oxyphenyl]cyclopropane-1,1-dicarboxamide]"
8,7.00 to 8.00,"Cn1cc(-c2ccc3c(Oc4ccc(NC(=O)C5(C(=O)N6CCc7cc(F)ccc76)CC5)cc4)ccnc3c2)cn1 [Compound 81, 1-(5-Fluoro-2,3-dihydroindole-1-carbonyl)-N-[4-[7-(1-methylpyrazol-4-yl)quinolin-4-yl]oxyphenyl]cyclopropane-1-carboxamide]"
9,7.00 to 8.00,"CN1CCC(n2cc(-c3ccc4c(Oc5ccc(NC(=O)C6(C(=O)Nc7ccc(F)cc7)CC6)cc5)ccnc4c3)cn2)CC1 [Compound 61, 1-N′-(4-Fluorophenyl)-1-N-[4-[7-[1-(1-methylpiperidin-4-yl)pyrazol-4-yl]quinolin-4-yl]oxyphenyl]cyclopropane-1,1-dicarboxamide]"
10,≥ 8.00,"O=C(Nc1ccc(F)cc1)C1(C(=O)Nc2ccc(Oc3ccnc4cc(-c5cnc[nH]5)ccc34)cc2)CC1 [Compound 72, 1-N′-(4-Fluorophenyl)-1-N-[4-[7-(1H-imidazol-5-yl)quinolin-4-yl]oxyphenyl]cyclopropane-1,1-dicarboxamide]"
11,7.00 to 8.00,"O=C(Nc1ccc(F)cc1)C1(C(=O)Nc2ccc(Oc3ccnc4cc(-c5ccccn5)ccc34)cc2)CC1 [Compound 85, 1-N′-(4-Fluorophenyl)-1-N-[4-(7-pyridin-2-ylquinolin-4-yl)oxyphenyl]cyclopropane-1,1-dicarboxamide]"
